Reference: ChEMBL document CHEMBL4038335, “Neuroactive Steroids. 2. 3α-Hydroxy-3β-methyl-21-(4-cyano-1H-pyrazol-1'-yl)-19-nor-5β-pregnan-20-one (SAGE-217): A Clinical Next Generation Neuroactive Steroid Positive Allosteric Modulator of the (γ-Aminobutyric Acid)A Receptor” (J Med Chem, 2017)
Values after ≈ are worked out from the molar mass of the structure shown.

Key:
[1] = Clearance in CD1 mouse at 5 mg/kg, iv or 20 mg/kg, po measured up to 8 hrs post dose by LC/MS-MS analysis; type: ADME, organism-based; conditions: in vivo
[2] = target: GABA-A receptor alpha-4/beta-3/delta (Homo sapiens, UniProt P28472+P48169+); test: (§1) Positive allosteric modulation of GABAA receptor alpha4beta3delta (unknown origin) expressed in CHO cells assessed as potentiation of GABA-mediated increase in channel current under holding potential at -80 mV at 0.01 to 10 uM preincubated for 30 secs followed by GABA stimulation for 2 secs by manual patch clamp assay relative to GABA; type: cell-based; conditions: 2 s
[3] = Ratio of drug level in Sprague-Dawley rat brain to plasma at 5 mg/kg, iv measured at 30 mins post dose by LC/MS-MS analysis; type: ADME, organism-based; conditions: read-out: BPR
[4] = target: GABA-A receptor; alpha-1/beta-2/gamma-2 (Homo sapiens) (UniProt P14867+P47870+P18507); test: as §1, with “alpha1beta2gamma2” for “alpha4beta3delta”, “mouse LTK” for “CHO”, “automated” for “manual”; type: cell-based
[5] = Clearance in Sprague-Dawley rat at 5 mg/kg, iv or 20 mg/kg, po measured up to 8 hrs post dose by LC/MS-MS analysis; type: ADME, organism-based; conditions: in vivo
[6] = target: T1, GABA-A receptor; alpha-1/beta-2/gamma-2 (Homo sapiens, UniProt P14867+P18507+P47870); test: as §1, with “alpha1beta2gamma2” for “alpha4beta3delta”, “mouse LTK” for “CHO”, “mV” for “mV at 0.01 to 10 uM”, “automated” for “manual”, “assay” for “assay relative to GABA”; type: cell-based
T1 sequence (P14867 whole entry): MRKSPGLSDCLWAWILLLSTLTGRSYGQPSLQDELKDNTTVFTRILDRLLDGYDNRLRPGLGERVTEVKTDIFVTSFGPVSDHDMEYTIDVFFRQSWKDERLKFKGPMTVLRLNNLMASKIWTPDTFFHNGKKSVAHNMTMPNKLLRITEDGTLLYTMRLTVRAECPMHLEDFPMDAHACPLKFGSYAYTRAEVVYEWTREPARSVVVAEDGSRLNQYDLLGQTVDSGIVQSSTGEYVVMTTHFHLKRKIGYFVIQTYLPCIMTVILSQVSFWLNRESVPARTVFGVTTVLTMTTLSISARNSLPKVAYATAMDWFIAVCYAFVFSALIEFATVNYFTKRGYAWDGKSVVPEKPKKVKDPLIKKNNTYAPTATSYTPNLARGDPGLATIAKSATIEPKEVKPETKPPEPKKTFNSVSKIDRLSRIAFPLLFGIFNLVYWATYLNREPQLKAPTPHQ
T1 sequence (P47870 whole entry): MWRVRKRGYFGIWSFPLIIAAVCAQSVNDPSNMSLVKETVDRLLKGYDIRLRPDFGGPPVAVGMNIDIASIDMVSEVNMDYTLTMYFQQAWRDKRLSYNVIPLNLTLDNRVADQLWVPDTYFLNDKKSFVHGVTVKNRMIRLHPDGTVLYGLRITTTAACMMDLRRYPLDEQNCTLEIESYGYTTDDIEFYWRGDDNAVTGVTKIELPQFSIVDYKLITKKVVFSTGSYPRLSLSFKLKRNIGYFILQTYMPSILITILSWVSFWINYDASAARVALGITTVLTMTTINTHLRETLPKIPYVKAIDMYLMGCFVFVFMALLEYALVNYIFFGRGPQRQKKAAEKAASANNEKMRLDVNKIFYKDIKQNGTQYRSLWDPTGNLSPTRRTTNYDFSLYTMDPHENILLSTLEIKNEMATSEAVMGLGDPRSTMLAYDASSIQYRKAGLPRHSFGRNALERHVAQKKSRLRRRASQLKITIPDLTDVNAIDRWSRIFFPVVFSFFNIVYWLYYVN
T1 sequence (P18507 whole entry): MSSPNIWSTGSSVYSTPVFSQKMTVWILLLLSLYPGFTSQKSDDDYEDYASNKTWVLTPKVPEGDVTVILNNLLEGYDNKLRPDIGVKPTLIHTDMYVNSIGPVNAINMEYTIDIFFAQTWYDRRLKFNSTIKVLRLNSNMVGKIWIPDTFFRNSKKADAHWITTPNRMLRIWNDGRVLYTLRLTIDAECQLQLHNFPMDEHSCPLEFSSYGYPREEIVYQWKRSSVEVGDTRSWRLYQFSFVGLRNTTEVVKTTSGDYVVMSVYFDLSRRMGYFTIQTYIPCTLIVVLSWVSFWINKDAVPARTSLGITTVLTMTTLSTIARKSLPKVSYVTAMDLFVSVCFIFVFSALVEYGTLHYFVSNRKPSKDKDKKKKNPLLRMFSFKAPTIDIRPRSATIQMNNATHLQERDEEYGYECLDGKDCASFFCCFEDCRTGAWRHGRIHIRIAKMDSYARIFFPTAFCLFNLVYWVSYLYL

[7] = Ratio of drug level in CD1 mouse brain to plasma at 5 mg/kg, iv measured at 30 mins post dose by LC/MS-MS analysis; type: ADME, organism-based; conditions: read-out: BPR
[8] = Clearance in mouse hepatic microsomes at 10 uM preincubated for 5 mins followed by NADPH addition measured over 60 mins by HPLC-MS/MS analysis; type: ADME, Microsome; conditions: liver microsomes
[9] = Displacement of [35S]TBPS from GABA-A receptor in Sprague-Dawley rat cerebral cortex cell membranes after 90 mins in presence of GABA by liquid scintillation counting
[10] = Thermodynamic aqueous solubility of compound at 10 uM sonicated for 1 min followed by incubation for 1 hr by HPLC-MS/MS; type: physicochemical; conditions: buffer; read-out: Therm_solubility
[11] = Oral bioavailability in Sprague-Dawley rat at 20 mg/kg measured up to 8 hrs post dose by LC/MS-MS analysis; type: ADME, organism-based; conditions: in vivo
[12] = Clearance in rat hepatic microsomes at 10 uM preincubated for 5 mins followed by NADPH addition measured over 60 mins by HPLC-MS/MS analysis; type: ADME, Microsome; conditions: liver microsomes
[13] = Clearance in human hepatic microsomes at 10 uM preincubated for 5 mins followed by NADPH addition measured over 60 mins by HPLC-MS/MS analysis; type: ADME, Microsome; conditions: liver microsomes
[14] = Oral bioavailability in CD1 mouse at 20 mg/kg measured up to 8 hrs post dose by LC/MS-MS analysis; type: ADME, organism-based; conditions: in vivo
[15] = target: Gamma-aminobutyric acid receptor subunit alpha-4/beta3/delta (Homo sapiens, UniProt O14764+P28472+P48169); test: as §1, with “mV” for “mV at 0.01 to 10 uM”, “assay” for “assay relative to GABA”; type: cell-based
[16] = Lipophilicity, logD of compound at 20 uM at pH 7.4 by HPLC/MS-MS analysis; type: physicochemical; conditions: buffer

Chain of Gamma-aminobutyric acid receptor subunit alpha-4/beta3/delta (P28472 whole entry): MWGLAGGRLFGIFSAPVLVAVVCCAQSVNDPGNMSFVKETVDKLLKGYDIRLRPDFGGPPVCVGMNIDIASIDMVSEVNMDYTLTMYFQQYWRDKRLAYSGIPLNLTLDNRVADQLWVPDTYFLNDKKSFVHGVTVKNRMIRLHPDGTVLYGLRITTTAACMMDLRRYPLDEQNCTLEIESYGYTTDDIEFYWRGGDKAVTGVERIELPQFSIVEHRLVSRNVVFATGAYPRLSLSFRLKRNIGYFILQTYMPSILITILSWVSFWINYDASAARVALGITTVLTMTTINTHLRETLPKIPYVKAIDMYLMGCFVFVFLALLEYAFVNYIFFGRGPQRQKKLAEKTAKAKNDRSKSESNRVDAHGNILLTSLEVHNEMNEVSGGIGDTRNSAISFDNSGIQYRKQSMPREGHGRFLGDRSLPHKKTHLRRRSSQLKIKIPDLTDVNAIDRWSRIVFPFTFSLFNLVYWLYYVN
Chain of Gamma-aminobutyric acid receptor subunit alpha-4/beta3/delta (P48169 whole entry): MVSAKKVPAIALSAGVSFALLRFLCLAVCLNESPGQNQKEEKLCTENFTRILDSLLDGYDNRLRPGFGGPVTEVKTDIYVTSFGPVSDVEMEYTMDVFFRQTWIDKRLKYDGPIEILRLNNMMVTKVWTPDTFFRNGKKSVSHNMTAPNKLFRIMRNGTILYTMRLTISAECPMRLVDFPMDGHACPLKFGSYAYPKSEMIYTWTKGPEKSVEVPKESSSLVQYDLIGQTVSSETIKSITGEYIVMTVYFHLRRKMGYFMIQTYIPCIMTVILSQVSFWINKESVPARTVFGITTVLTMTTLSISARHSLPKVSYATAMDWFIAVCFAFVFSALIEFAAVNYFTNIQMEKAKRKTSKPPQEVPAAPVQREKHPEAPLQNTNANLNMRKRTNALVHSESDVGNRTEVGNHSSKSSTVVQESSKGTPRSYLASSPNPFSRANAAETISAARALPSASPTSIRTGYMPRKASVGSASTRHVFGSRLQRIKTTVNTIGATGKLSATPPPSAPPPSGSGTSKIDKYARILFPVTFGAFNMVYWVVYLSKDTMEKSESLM
Chain of Gamma-aminobutyric acid receptor subunit alpha-4/beta3/delta (O14764 whole entry): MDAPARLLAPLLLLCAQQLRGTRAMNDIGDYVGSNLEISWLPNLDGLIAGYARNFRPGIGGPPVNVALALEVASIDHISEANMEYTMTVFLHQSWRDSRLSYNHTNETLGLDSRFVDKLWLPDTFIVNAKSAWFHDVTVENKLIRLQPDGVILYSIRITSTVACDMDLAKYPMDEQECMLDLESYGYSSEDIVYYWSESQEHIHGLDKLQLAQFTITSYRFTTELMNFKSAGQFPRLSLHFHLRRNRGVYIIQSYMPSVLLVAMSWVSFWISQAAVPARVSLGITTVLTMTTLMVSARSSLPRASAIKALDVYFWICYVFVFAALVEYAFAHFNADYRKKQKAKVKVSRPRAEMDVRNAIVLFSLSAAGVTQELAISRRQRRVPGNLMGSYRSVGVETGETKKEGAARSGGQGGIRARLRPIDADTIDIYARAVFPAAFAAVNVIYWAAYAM
Chain of GABA-A receptor alpha-4/beta-3/delta (P28472 whole entry): as the sequence (P28472 whole entry) above
Chain of GABA-A receptor alpha-4/beta-3/delta (P48169 whole entry): as the sequence (P48169 whole entry) above
Chain of GABA-A receptor alpha-4/beta-3/delta (Q06278 whole entry, further chain): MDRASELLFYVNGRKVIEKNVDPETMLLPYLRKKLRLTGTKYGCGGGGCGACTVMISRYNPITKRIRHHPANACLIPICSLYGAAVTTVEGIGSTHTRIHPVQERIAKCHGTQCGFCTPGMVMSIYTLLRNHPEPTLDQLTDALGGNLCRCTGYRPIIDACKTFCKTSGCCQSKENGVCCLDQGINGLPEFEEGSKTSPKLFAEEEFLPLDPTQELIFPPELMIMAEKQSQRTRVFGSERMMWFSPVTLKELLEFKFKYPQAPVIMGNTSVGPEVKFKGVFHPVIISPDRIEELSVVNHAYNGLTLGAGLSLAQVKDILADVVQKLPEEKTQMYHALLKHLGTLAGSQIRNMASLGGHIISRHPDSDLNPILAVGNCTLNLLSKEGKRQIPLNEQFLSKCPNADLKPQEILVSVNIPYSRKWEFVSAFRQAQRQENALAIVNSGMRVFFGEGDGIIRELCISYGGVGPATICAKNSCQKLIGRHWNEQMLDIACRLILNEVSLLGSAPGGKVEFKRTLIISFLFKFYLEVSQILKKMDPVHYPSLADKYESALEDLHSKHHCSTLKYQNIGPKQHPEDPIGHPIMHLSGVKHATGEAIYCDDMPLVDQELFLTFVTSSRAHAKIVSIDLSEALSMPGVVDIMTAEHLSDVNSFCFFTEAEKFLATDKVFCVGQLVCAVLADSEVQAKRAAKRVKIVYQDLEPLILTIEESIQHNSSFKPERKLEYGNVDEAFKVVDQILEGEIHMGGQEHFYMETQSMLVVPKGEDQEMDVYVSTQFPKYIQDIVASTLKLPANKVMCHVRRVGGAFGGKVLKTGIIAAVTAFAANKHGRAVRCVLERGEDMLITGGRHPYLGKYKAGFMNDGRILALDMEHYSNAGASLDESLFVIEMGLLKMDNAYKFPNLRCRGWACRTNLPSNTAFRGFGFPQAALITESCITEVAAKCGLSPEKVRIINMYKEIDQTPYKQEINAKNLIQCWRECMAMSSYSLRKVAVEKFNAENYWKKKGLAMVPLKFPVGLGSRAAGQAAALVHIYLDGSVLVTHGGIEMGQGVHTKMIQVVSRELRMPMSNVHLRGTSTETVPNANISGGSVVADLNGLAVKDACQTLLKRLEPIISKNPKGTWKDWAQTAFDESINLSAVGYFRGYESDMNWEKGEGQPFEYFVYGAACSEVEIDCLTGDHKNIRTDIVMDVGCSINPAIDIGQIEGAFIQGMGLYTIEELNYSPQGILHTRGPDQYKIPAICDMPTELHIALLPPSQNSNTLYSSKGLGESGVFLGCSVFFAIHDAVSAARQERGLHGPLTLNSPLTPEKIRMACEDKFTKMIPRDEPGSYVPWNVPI

Question: Which clearance [1] does the source give for `C[C@@]1(O)CC[C@H]2[C@H](CC[C@@H]3[C@@H]2CC[C@]2(C)[C@@H](C(=O)Cn4ccc(C#N)n4)CC[C@@H]32)C1` here?
Answer: 43.3 mL/min/kg

Question: And the Emax [2]?
Answer: 330%

Question: What about the Kp at 0.5 h [3] of the same molecule?
Answer: 1.9

Question: And the Emax [4]?
Answer: 725%

Question: What about the clearance [5] of the same molecule?
Answer: 25 mL/min/kg

Question: What about the EC50 [6] of the same molecule?
Answer: 0.225 µM

Question: And the Kp at 0.5 h [7]?
Answer: 1.4

Question: What about the CLhep predicted at 10 µM [8] of the same molecule?
Answer: 83.3 mL/min/kg

Question: What about the IC50 [9] of the same molecule?
Answer: 0.013 µM

Question: What about the solubility thermodynamic at 1 h, 10 µM [10] of the same molecule?
Answer: 1.9 µM (≈ 0.778 µg/mL)

Question: What about the bioavailability [11] of the same molecule?
Answer: 56%

Question: And the CLhep predicted at 10 µM [12]?
Answer: 41.7 mL/min/kg

Question: What about the CLhep predicted at 10 µM [13] of the same molecule?
Answer: 5 mL/min/kg

Question: What about the bioavailability [14] of the same molecule?
Answer: 26%

Question: What about the EC50 [15] of the same molecule?
Answer: 0.11 µM

Question: And the logD at 20 µM [16]?
Answer: 4.6
